Data taken from patent publication EP2556819A1, “EXTERNAL SKIN PREPARATION” (Kao Corporation, priority 2010, dated 2011).
≈ marks a conversion by molar mass, not a printed value. Blank lines part the entries; values can stand above or below the molecule they belong to.

Key:
[1] = system: cultured skin model containing melanin cells (MEL-300, Asian Doner, manufactured by Kurabo Industries, Ltd.); assay: Melanin production inhibition test using three-dimensional cultured skin model; assay type: cell-based; details: 336 h, cultured for 14 days, read-out: Melanin production inhibition rate (% with respect to control); for inhibition at 100 µM: Addition concentration 100 µM; for inhibition at 50 µM: Addition concentration 50 µM
Text: 4-(3-alkoxybutyl)phenol obtained in the above-mentioned Production Example 1 was subjected to the below-mentioned melanin production inhibition test. Note here that as a comparison target, 4-(3-hydroxybutyl)phenol in which an alkyl group had been removed from 4-(3-alkoxybutyl)phenol -and 4-(3-acetoxybutyl)phenol and 4-(3-propanoyloxybutyl)phenol as an ester compound having the same number of carbon atoms, were used.
To a skin model cup of a cultured skin model containing melanin cells (MEL-300, Asian Doner, manufactured by Kurabo Industries, Ltd.), 0.2 mL of a solution of a test substance was placed, and the skin model was cultured for 14 days by using an LLMM medium attached to the product. During the culture period, the medium was replaced by a new medium every three days. After culture for 14 days, the skin model was washed, the survival rate was measured by fluorescence measurement (Excitation: 560 nm, Emission: 590 nm) using an AlamarBlue reagent (manufactured by Molecular Probe), and the amount of melanin synthesized in each skin model was measured. The amount of melanin synthesized was determined by the colorimetric determination (405 nm) of a solution obtained by immersing each skin model in PBS so as to separate a cell layer, then washing it with PBS and hydrous ethanol, adding 0.2 mL of a 2N NaOH aqueous solution, and extracting melanin at 100°C for three hours.

[2] = system: B16 melanoma cells; assay: in vitro melanin production inhibition test; assay type: cell-based; details: Mus musculus, concentration inhibiting production of melanin by 50%, cultured for 72 hours, theophylline 2 mmol/L, melanin per unit amount of protein
Experimental: The 4-(3-alkoxybutyl)phenol compound obtained in the above-mentioned Production Example 1 was subjected to the following melanin production inhibition test. Note here that as a comparison target, arbutin, ascorbic acid, kojic acid, and linoleic acid, which are known to have a melanin production-inhibitory action, were used. B16 melanoma cells were seeded in a minimum essential medium (MEM) supplemented with 10 vol% fetal bovine serum in 12-well plates at 1 × 10^4 cells/well, and pre-cultured for 24 hours by a usual method. After pre-culture, the medium was replaced to a test medium to which each evaluation sample had been added at various concentrations, and the medium was cultured for 72 hours. As the test medium, the above-mentioned pre-culture medium to which theophylline had been added at 2 mmol/L was used. After culture, cells were collected and dissolved in 1 mol/L of an aqueous solution of sodium hydroxide containing 10 vol% dimethyl sulfoxide, and an OD475 value of the solution was measured and the value was defined as an index of the amount of melanin. Furthermore, at the same time, by using Coomasie Plus Protein Assay Kit (manufactured by PIERCE), the total amount of protein in the solution was measured, and the amount of melanin per unit amount of protein was calculated. Based on the amount of melanin per unit amount of protein, the melanin production inhibition rate was calculated per each addition concentration from the following formula. Melanin production inhibition rate (%) = (A-B)/A [formula] (wherein A denotes the amount of melanin per unit amount of protein when no sample was added, and B denotes the amount of melanin per unit amount of protein when a sample was added). Next, a graph in which the concentration of the added sample is plotted on the axis of abscissas, and a melanin production inhibition rate is plotted in the axis of ordinates was formed, and concentration at which each evaluation sample inhibits the production of melanin by 50% (IC50) was determined from this graph.

[3] = Solubility test; assay type: physicochemical; details: thermodynamic from solid, 0.1 g compound + 1 mL solvent, heated at 40°C for 10 min., returned to room temperature, visual observation
Experimental: By using 4-(3-ethoxybutyl)phenol obtained in the above-mentioned Production Example 1, the following solubility test was carried out. Note here that as a comparison target, 4-(3-hydroxybuty)phenol was used.
To 0.1 g of each compound, 1 mL of each solvent described in the following table 1 was added. The mixture was heated at 40°C for 10 min., and then the temperature was returned to room temperature. The solubility in the solvent at this time was evaluated by visual observation. The evaluation was carried out in which a case where it was dissolved was evaluated as "a" and a case where insolubles were left was evaluated as "b."

[4] = oil or lipid, Glyceryl tri(2-ethylhexanoate)
[5] = oil or lipid, Isocetyl myristate
[6] = oil or lipid, Methylphenyl polysiloxane (Silicon FZ209)
[7] = oil or lipid, Octyldodecyl myristate
[8] = organic solvent or mixture, Dipropylene glycol
[9] = organic solvent or mixture, Ethanol

solubility at 10 min [3, 4]: < 100 mg/mL
solubility at 10 min [3, 5]: < 100 mg/mL
solubility at 10 min [3, 6]: < 100 mg/mL
solubility at 10 min [3, 7]: > 100 mg/mL
solubility at 10 min [3, 8]: > 100 mg/mL
solubility at 10 min [3, 9]: > 100 mg/mL
SMILES: CC(O)CCc1ccc(O)cc1 (stereo not drawn) [4-(3-Hydroxybutyl)phenol, 4-(3-hydroxybutyl)phenol, reference compound]
inhibition at 100 µM [1]: 18.6%

IC50 [2]: 2 µg/mL (≈ 11.1 µM)
SMILES: COC(C)CCc1ccc(O)cc1 (stereo not drawn) [4-(3-Methoxybutyl)phenol, 4-(3-methoxybutyl)phenol]
inhibition at 100 µM [1]: 55.6%

IC50 [2]: 30 µg/mL (≈ 110 µM)
SMILES: OC[C@H]1O[C@@H](Oc2ccc(O)cc2)[C@H](O)[C@@H](O)[C@@H]1O [Arbutin, arbutin, reference compound]

IC50 [2]: 60 µg/mL (≈ 341 µM)
SMILES: O=C1O[C@H]([C@@H](O)CO)C(O)=C1O [Ascorbic acid, ascorbic acid, reference compound]

IC50 [2]: 180 µg/mL (≈ 1270 µM)
SMILES: O=c1cc(CO)occ1O [Kojic acid, kojic acid, reference compound]

Continued, molecule first:

SMILES: CC(=O)OC(C)CCc1ccc(O)cc1 (stereo not drawn) [4-(3-Acetoxybutyl)phenol, 4-(3-acetoxybutyl)phenol, reference compound]
inhibition at 100 µM [1]: 26.7%

SMILES: CCOC(C)CCc1ccc(O)cc1 (stereo not drawn) [4-(3-Ethoxybutyl)phenol, 4-(3-ethoxybutyl)phenol]
inhibition at 100 µM [1]: 56%
IC50 [2]: 2 µg/mL (≈ 10.3 µM)
solubility at 10 min [3, 4]: > 100 mg/mL
solubility at 10 min [3, 5]: > 100 mg/mL
solubility at 10 min [3, 6]: > 100 mg/mL
solubility at 10 min [3, 7]: > 100 mg/mL
solubility at 10 min [3, 8]: > 100 mg/mL
solubility at 10 min [3, 9]: > 100 mg/mL

SMILES: CC(C)OC(C)CCc1ccc(O)cc1 (stereo not drawn) [4-(3-Isopropoxybutyl)phenol, 4-(3-isopropoxybutyl)phenol]
inhibition at 50 µM [1]: 56.9%
IC50 [2]: 2 µg/mL (≈ 9.6 µM)

SMILES: CCC(=O)OC(C)CCc1ccc(O)cc1 (stereo not drawn) [4-(3-Propanoyloxybutyl)phenol, 4-(3-propanoyloxybutyl)phenol, reference compound]
inhibition at 50 µM [1]: 18.4%

SMILES: CCCOC(C)CCc1ccc(O)cc1 (stereo not drawn) [4-(3-Propoxybutyl)phenol, 4-(3-propoxybutyl)phenol]
inhibition at 50 µM [1]: 69.5%
IC50 [2]: 2.5 µg/mL (≈ 12 µM)

SMILES: CCCCC/C=C\C/C=C\CCCCCCCC(=O)O [Linoleic acid, linoleic acid, reference compound]
IC50 [2]: 4 µg/mL (≈ 14.3 µM)
